Measured values taken from article PMC6225228, “Design, Synthesis and Evaluation of N-pyrazinylbenzamides as Potential Antimycobacterial Agents” (Molecules : A Journal of Synthetic Chemistry and Natural …, 2018).
Converted amounts (≈) assume the structure as drawn. Where two headings read alike, the source gives them in different places.

How the values were obtained:
[1] = tested on: Aspergillus fumigatus 231; assay: Antifungal microdilution broth, AF; assay type: cell-based; conditions: read-out: MIC AF
Candida tropicalis 156 = assay: Antifungal microdilution broth, CT; assay type: cell-based; conditions: read-out: MIC CT
[2] = tested on: Staphylococcus aureus H 5996/08 methicillin resistant; assay: microbe, parasite or virus in culture; assay type: cell-based; conditions: Staphylococcus aureus, MRSA, read-out: MIC MRSA
[3] = tested on: Mycobacterium tuberculosis H37Rv CNCTC My 331/88 (ATCC 27294); assay: Antimycobacterial microdilution MABA, M. tuberculosis; assay type: cell-based; conditions: for MIC: Mycobacterium tuberculosis, read-out: Mtb H37Rv ATCC 27294 MIC, Middlebrook 7H9 with OADC growth supplement, pH = 6.6, MABA; for Mtb H37Rv ATCC 27294 MIC: Middlebrook 7H9 with OADC growth supplement, pH = 6.6, MABA
[4] = tested on: M. kansasii CNCTC My 235/80 (ATCC 12478); assay: Antimycobacterial microdilution MABA, M. kansasii; assay type: cell-based, Mycobacterium kansasii; conditions: for M. kans. ATCC 12478 MIC: Middlebrook 7H9 with OADC, pH 6.6, MABA; for MIC: Mycobacterium kansasii, ATCC12478, pH 6.6, read-out: M. kans. ATCC 12478 MIC, Middlebrook 7H9 with OADC, pH 6.6, MABA
Trichosporon asahii 1188 = assay: Antifungal microdilution broth, TA; assay type: cell-based; conditions: read-out: MIC TA
[5] = tested on: Lichtheimia corymbifera 272; assay: Antifungal microdilution broth, LC; assay type: cell-based; conditions: read-out: MIC LC
[6] = tested on: Enterococcus sp. J 14365/08; assay: Antibacterial microdilution broth, EF; assay type: cell-based; conditions: Enterococcus, read-out: MIC EF
[7] = tested on: Staphylococcus epidermidis H 6966/08; assay: Antibacterial microdilution broth, SE; assay type: cell-based; conditions: Staphylococcus epidermidis, read-out: MIC SE
Candida krusei E28 = assay: Antifungal microdilution broth, CK; assay type: cell-based; conditions: Pichia kudriavzevii, read-out: MIC CK
Candida glabrata 20/I = assay: Antifungal microdilution broth, CG; assay type: cell-based; conditions: Nakaseomyces glabratus, 20/I, read-out: MIC CG
[8] = tested on: Candida albicans ATCC 44859; assay: Antifungal microdilution broth, CA; assay type: cell-based; conditions: Candida albicans, read-out: MIC CA
[9] = tested on: Mycobacterium smegmatis CCM 4622 (ATCC 607); assay: Antimycobacterial microdilution, M. smegmatis; assay type: cell-based; conditions: Mycolicibacterium smegmatis, read-out: M. smeg. ATCC 607 MIC
[10] = tested on: Pseudomonas aeruginosa CCM 1961; assay: Antibacterial microdilution broth, PA; assay type: cell-based; conditions: Pseudomonas aeruginosa, read-out: MIC PA
[11] = tested on: Staphylococcus aureus CCM 4516/08; assay: Antibacterial microdilution broth, SA; assay type: cell-based; conditions: Staphylococcus aureus
[12] = tested on: Escherichia coli CCM 4517; assay: Antibacterial microdilution broth, EC; assay type: cell-based; conditions: Escherichia coli, read-out: MIC EC
[13] = tested on: M. avium ssp. avium CNCTC My 80/72 (ATCC 15769); assay: Antimycobacterial microdilution MABA, M. avium; assay type: cell-based, Mycobacterium avium; conditions: for M. avium ATCC 15769 MIC: Middlebrook 7H9 with OADC, pH 6.6, MABA; for MIC: Mycobacterium avium, ATCC15769, pH 6.6, read-out: M. avium ATCC 15769 MIC
[14] = tested on: Trichophyton interdigitale 445; assay: Antifungal microdilution broth, TI; assay type: cell-based; conditions: read-out: MIC TI
[15] = Aspergillus fumigatus, 231, 24 h
[16] = Aspergillus fumigatus, 231, 48 h
[17] = Trichosporon asahii, 1188, 24 h
[18] = Trichosporon asahii, 1188, 48 h
[19] = Lichtheimia corymbifera, 272, 24 h
[20] = Lichtheimia corymbifera, 272, 48 h
[21] = CCM4516, 24 h, read-out: MIC SA, 24 h
[22] = CCM4516, 48 h, read-out: MIC SA, 48 h
[23] = Trichophyton interdigitale, 445, 72 h
[24] = Trichophyton interdigitale, 445, 120 h

Structure (SMILES) | MIC [1, 15] | MIC [1, 16] | MIC (Candida tropicalis 156; Candida tropicalis, 156, 24 h) | MIC (Candida tropicalis 156; Candida tropicalis, 156, 48 h) | MIC ([2]; 24 h) | MIC ([2]; 48 h) | MIC [3] | MIC [4] | MIC (Trichosporon asahii 1188; [17]) | MIC (Trichosporon asahii 1188; [18]) | MIC [5, 19] | MIC [5, 20] | MIC ([6]; SP.J14365/08, 24 h) | MIC ([6]; SP.J14365/08, 48 h) | MIC ([7]; H6966/08, 24 h) | MIC ([7]; H6966/08, 48 h) | MIC (Candida krusei E28; E28, 24 h) | MIC (Candida krusei E28; E28, 48 h) | MIC (Candida glabrata 20/I; 24 h) | MIC (Candida glabrata 20/I; 48 h) | further results
COc1ccc(C(=O)Nc2cnccn2)cc1 [Compound 1g] | > 500 µM | > 500 µM | > 500 µM | > 500 µM | > 500 µM | > 500 µM | 25 µg/mL (≈ 109 µM) | > 100 µg/mL | > 500 µM | > 500 µM | > 500 µM | > 500 µM | > 500 µM | > 500 µM | > 500 µM | > 500 µM | > 500 µM | > 500 µM | > 500 µM | > 500 µM | M. kans. ATCC 12478 MIC [4]: >100 µg/mL; melting point: 156 to 156.6 °C; MIC ([8]; ATCC44859, 24 h): > 500 µM; MIC ([8]; ATCC44859, 48 h): > 500 µM; MIC [9]: ≥ 500 µg/mL; MIC ([10]; CCM1961, 72 h): > 500 µM; MIC ([10]; CCM1961, 120 h): > 500 µM; MIC [11, 21]: > 500 µM; MIC [11, 22]: > 500 µM; MIC ([12]; CCM4517, 24 h): > 500 µM; MIC ([12]; CCM4517, 48 h): > 500 µM; M. avium ATCC 15769 MIC [13]: >100 µg/mL; MIC [13]: > 100 µg/mL; MIC [14, 23]: > 500 µM; MIC [14, 24]: > 500 µM
Cc1ccc(C(=O)Nc2cnccn2)cc1 [Compound 1h] | > 500 µM | > 500 µM | > 500 µM | > 500 µM | > 500 µM | > 500 µM | > 100 µg/mL | > 100 µg/mL | > 500 µM | > 500 µM | > 500 µM | > 500 µM | > 500 µM | > 500 µM | 500 µM (≈ 107 µg/mL) | 500 µM (≈ 107 µg/mL) | > 500 µM | > 500 µM | > 500 µM | > 500 µM | Mtb H37Rv ATCC 27294 MIC [3]: >100 µg/mL; melting point: 163.3 to 166 °C; MIC ([8]; ATCC44859, 24 h): 500 µM (≈ 107 µg/mL); MIC ([8]; ATCC44859, 48 h): 500 µM (≈ 107 µg/mL); MIC [9]: ≥ 500 µg/mL; MIC ([10]; CCM1961, 72 h): 500 µM (≈ 107 µg/mL); MIC ([10]; CCM1961, 120 h): 500 µM (≈ 107 µg/mL); MIC [11, 21]: > 500 µM; MIC [11, 22]: > 500 µM; MIC ([12]; CCM4517, 24 h): > 500 µM; MIC ([12]; CCM4517, 48 h): > 500 µM; MIC [13]: > 100 µg/mL; MIC [14, 23]: > 500 µM; MIC [14, 24]: > 500 µM
O=C(Nc1cnccn1)c1ccccc1Cl [Compound 1j] | > 500 µM | > 500 µM | > 500 µM | > 500 µM | > 500 µM | > 500 µM | > 100 µg/mL | > 100 µg/mL | > 500 µM | > 500 µM | > 500 µM | > 500 µM | > 500 µM | > 500 µM | 500 µM (≈ 117 µg/mL) | 500 µM (≈ 117 µg/mL) | > 500 µM | > 500 µM | > 500 µM | > 500 µM | Mtb H37Rv ATCC 27294 MIC [3]: >100 µg/mL; M. kans. ATCC 12478 MIC [4]: >100 µg/mL; melting point: 128.2 to 129.7 °C; MIC ([8]; ATCC44859, 24 h): > 500 µM; MIC ([8]; ATCC44859, 48 h): > 500 µM; MIC [9]: 250 µg/mL (≈ 1070 µM); MIC ([10]; CCM1961, 72 h): 250 µM (≈ 58.4 µg/mL); MIC ([10]; CCM1961, 120 h): 250 µM (≈ 58.4 µg/mL); MIC [11, 21]: 250 µM (≈ 58.4 µg/mL); MIC [11, 22]: 250 µM (≈ 58.4 µg/mL); MIC ([12]; CCM4517, 24 h): > 500 µM; MIC ([12]; CCM4517, 48 h): > 500 µM; M. avium ATCC 15769 MIC [13]: >100 µg/mL; MIC [13]: > 100 µg/mL; MIC [14, 23]: > 500 µM; MIC [14, 24]: > 500 µM
